Consider 3 compounds from publication PMC10803328 (Scientific Reports, 2024).

The target of one data set is α4β2 nAChR. Also noted: method as in PMID 30872534, PMID 24556591. As to conditions: in vitro binding assay, literature; cited from earlier work.
For another data set, the target named is α7-nAChR. Also noted: method as in PMID 30872534, PMID 24556591. As to conditions: cited from earlier work; for Ki: in vitro binding assay, literature.
Data set [1] relates to PSAM^4-GlyR. More on the design: method as in PMID 30872534. Conditions: rhesus monkey, globus pallidus internal region (GPi), PSAM^4-GlyR activated by the ligand; cited from earlier work.
Data set [2] has as its target T1, PSAM^4-GlyR (Homo sapiens, UniProt P23415+P36544, L131G/Q139L/Y217F). The experiment in a line: Competitive binding assay with [^3H]ASEM on membranes of HEK-293 cells transduced with PSAM^4-GlyR. Also noted: expressed in transfected cells; host or cells: HEK-293 (membrane fraction). Here is the method: HEK-293 cells were transduced with plasmids (5 μg per dish) of encoding PSAM^4-GlyR (in pcDNA3.1) or a control vector (GFP) and harvested 48 h after transduction. Cells were suspended in Tris–HCl buffer (50 mM, pH 7.4) supplemented with a protease inhibitor cocktail (1:100, Sigma-Aldrich; St Louis, MO). HEK-293 cells were disrupted with a Polytron homogenizer (Kinematica; Basel, Switzerland). Homogenates were centrifuged at 48,000g (50 min, 4 °C) and washed twice in the same conditions to isolate the membrane fraction. Protein was quantified by the bicinchoninic acid method (Pierce, ThermoFisher Scientific, MA). […] In all cases, free and membrane-bound radioligand were separated by rapid filtration of 500-μL aliquots in a 96-well plate harvester (Brandel; Gaithersburg, MD) and washed with ice-cold Tris–HCl buffer (2 mL). Microscint-20 scintillation liquid (65 μL per well, PerkinElmer; Boston, MA) was added to the filter plates. Plates were incubated overnight at room temperature and radioactivity counts were determined in a MicroBeta2 plate counter (PerkinElmer) with an efficiency of 41%. One-site competition curves were fitted using Prism 7 (GraphPad Software; La Jolla, CA). Ki values were calculated using the Cheng-Prusoff equation.

In data set [3] the target is T1, PSAM^4-GlyR. Also noted: expressed in transfected cells; method as in PMID 30872534, PMID 24556591, PMID 36279419. Conditions: read-out: PSAM^4-GlyR (Ki); in vitro binding assay, literature; cited from earlier work.
Data set [4] concerns PSAM^4-GlyR. Also noted: method as in PMID 30872534. As to conditions: area CA1 of mouse hippocampal neurons, acting on PSAM^4-GlyR; cited from earlier work.
Data set [5] deals with PSAM^4-GlyR. More on the design: method as in PMID 30872534. As to conditions: PSAM^4-GlyR transduced mouse; cited from earlier work.
A short description of data set [6]: Measurement of apparent pKa by radiotracer partition. Type of data set: physicochemical. As to conditions: cyclohexane / sodium phosphate buffer partition; cyclohexane / phosphate buffers pH 3.0-10.5, n = 3. As for the experimental part: The method was similar to that followed previously for other radiotracers. Sodium phosphate buffers (0.15 M), with pH values of 3.0, 3.5, 4.0, 4.5, 5.0, 5.5, 6.0, 6.5, 7.0, 7.4, 8.0, 8.5, 9.0, 9.5, 10.0, and 10.5, were prepared from 0.15 M NaH2PO4 and 0.1 M Na2HPO4 and distributed (1 mL per tube) as the aqueous phase. [^11C]uPSEM, formulated in ethanol (20 µL, 2.4 ± 0.3 MBq, n = 48), was added to each tube. Triple sets of such tubes were prepared simultaneously. Cyclohexane (1.0 mL) was added to each of the tubes containing the buffer and the [^11C]uPSEM and then vigorously vortexed for 1 min. The tubes were then centrifuged for one minute. The two phases in each tube were separated, sampled (50 µL aqueous, 200 µL organic) and counted in a γ-counter. Distribution coefficients at each pH were calculated by dividing the counts detected in the organic phase by the total activity present in both phases. These distribution coefficients were plotted versus pH and nonlinear regression analysis applied with GraphPad Prism version 4.03 for windows (GraphPad Software; San Diego, CA) using “One site competition” curve-fitting. […] The radiochemical purity of the [^11C]uPSEM preparation was 98.8% as determined by radio-HPLC on an X-Terra […] column (10 µm, 7.8 × 300 mm; Waters Corp.) and a mobile phase of MeOH:H2O:Et3N (55:45:0.1, by vol) at 5.0 mL/min.

A further data set concerns P-gp. As to conditions: cited from earlier work.

Molecules are shown by their SMILES. Entries after “also recorded” stand apart in the source; their conditions may differ. Where two headings read alike, the source gives them in different places.

T1 sequence (P36544+P23415 fused P36544:L131G/P36544:Q139L/P36544:Y217F): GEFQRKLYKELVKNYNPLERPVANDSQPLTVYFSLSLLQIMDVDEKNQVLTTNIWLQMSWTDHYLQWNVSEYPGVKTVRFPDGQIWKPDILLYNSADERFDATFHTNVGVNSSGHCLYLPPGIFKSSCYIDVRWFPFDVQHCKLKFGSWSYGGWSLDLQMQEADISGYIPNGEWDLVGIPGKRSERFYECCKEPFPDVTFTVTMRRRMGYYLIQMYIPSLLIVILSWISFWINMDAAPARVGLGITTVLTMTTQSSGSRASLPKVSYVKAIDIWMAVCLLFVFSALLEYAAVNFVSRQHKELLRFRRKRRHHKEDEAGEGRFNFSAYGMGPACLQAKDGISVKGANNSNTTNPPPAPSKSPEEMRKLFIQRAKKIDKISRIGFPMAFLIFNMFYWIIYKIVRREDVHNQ

For the compound `O=S1(=O)c2cc(N3CCN4CCC3CC4)ccc2-c2cccc(F)c21` [ASEM], the values for the inhibition constant (Ki) at α4β2 nAChR and at α7-nAChR were 4000 nM and 0.3 nM, respectively.
Regarding `c1cnc2cc3c(cc2n1)[C@@H]1CNC[C@H]3C1` [Varenicline, varenicline], the “effect on neuronal firing rate” value with PSAM^4-GlyR [1] is “reduces neuronal firing rate”.
On to `Cn1c(=O)cnc2cc3c(cc21)C1CNCC3C1` (centres unmarked) [uPSEM792, 1-Methyl-1,6,7,8,9,10-hexahydro-2H-6,10-methanoazepino[4,5-g]quinoxalin-2-one], for which the Ki at PSAM^4-GlyR [2] is 2.62 nM; on PSAM^4-GlyR [3], 0.7 nM; at α7-nAChR, 8000 nM. For the same compound, the neuronal silencing entry with PSAM^4-GlyR [4] is “Neuronal silencing has been shown”. Also, in the data set on PSAM^4-GlyR [5], the “blocking of [^18F]ASEM binding in brain” value was “able to block [^18F]ASEM binding”. Further, the pKa in data set [6] turned out to be 9.92 ± 0.05. Further, the “affinity to α7-nAChRs (in words)” value in the data set with α7-nAChR was “low affinity”. In addition, the “P-gp substrate in vitro” value in the data set on P-gp is “not a P-gp substrate in vitro; also recorded: not to be a P-gp substrate”.
